Results taken from ChEMBL document CHEMBL3217687, “Identification of multifunctional small molecule-based reversible monoamine oxidase inhibitors” (Medchemcomm, 2011).

What was measured:
[1] = target: T1, Amine oxidase [flavin-containing] A (Homo sapiens, UniProt P21397); test: Inhibition of human recombinant MAOA assessed as kynuramine conversion to 4-hydroxyquinoline after 20 mins by fluorescence assay
T1 sequence (P21397 whole entry): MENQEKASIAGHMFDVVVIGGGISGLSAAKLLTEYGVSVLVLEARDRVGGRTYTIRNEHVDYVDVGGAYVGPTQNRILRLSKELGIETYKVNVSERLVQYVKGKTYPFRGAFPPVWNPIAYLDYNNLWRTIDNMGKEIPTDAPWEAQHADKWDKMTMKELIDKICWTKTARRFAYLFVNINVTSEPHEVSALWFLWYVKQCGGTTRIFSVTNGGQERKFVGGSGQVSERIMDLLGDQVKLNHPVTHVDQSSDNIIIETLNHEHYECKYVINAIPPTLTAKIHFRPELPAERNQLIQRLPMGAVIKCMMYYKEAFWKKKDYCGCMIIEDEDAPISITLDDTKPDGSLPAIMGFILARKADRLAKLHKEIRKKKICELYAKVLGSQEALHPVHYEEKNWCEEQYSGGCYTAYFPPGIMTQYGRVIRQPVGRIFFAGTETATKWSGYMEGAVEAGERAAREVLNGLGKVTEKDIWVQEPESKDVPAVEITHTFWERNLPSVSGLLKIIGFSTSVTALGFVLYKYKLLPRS

[2] = species: Homo sapiens; test: Selectivity index, ratio of Ki for human recombinant MAOA to Ki for human recombinant MAOB
[3] = target: T2, Amine oxidase [flavin-containing] B (Homo sapiens, UniProt P27338); test: Inhibition of human recombinant MAOB assessed as kynuramine conversion to 4-hydroxyquinoline after 20 mins by fluorescence assay
T2 sequence (P27338 whole entry): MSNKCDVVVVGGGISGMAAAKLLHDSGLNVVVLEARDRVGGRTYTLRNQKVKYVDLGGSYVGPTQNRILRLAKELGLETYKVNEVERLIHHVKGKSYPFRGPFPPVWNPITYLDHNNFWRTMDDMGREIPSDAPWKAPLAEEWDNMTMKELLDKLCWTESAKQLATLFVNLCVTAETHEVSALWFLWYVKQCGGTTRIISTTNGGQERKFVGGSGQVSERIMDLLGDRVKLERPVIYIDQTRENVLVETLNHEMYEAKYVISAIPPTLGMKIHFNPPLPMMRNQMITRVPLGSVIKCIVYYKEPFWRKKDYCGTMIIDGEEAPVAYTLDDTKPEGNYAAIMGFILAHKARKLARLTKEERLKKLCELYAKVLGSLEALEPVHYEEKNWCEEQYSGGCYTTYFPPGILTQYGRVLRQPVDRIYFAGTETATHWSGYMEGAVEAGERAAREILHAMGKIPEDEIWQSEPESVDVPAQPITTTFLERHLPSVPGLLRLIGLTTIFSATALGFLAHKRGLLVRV

[4] = target: T2, Amine oxidase [flavin-containing] B; test: Binding affinity to human recombinant MAOB
[5] = target: T1, Amine oxidase [flavin-containing] A; test: Binding affinity to human recombinant MAOA

IC50 [1] [µM]	Ratio Ki [2]	IC50 [3] [µM]	Ki [4] [µM]	Ki [5] [µM]	Compound
0.36	2.8	0.068	0.04	0.1	CN(C)c1ccc(/N=C/c2ccccn2)cc1
20	0.06	182	97	5.7	c1ccc(NCc2ccccn2)cc1
